From BindingDB's records for doi:10.1016/j.bmcl.2008.02.009 (Novartis Institutes For Biomedical Research, 2008) come the findings set out here.

The term IC50 denotes the concentration that inhibits the measured activity by half. Low values mean inhibition by little substance, high ones a need for much substance.

Each structure is given as a SMILES string.

In experiment [1] the target is T1, Farnesyl pyrophosphate synthase (Homo sapiens, UniProt P14324).
T1 sequence (P14324 whole entry): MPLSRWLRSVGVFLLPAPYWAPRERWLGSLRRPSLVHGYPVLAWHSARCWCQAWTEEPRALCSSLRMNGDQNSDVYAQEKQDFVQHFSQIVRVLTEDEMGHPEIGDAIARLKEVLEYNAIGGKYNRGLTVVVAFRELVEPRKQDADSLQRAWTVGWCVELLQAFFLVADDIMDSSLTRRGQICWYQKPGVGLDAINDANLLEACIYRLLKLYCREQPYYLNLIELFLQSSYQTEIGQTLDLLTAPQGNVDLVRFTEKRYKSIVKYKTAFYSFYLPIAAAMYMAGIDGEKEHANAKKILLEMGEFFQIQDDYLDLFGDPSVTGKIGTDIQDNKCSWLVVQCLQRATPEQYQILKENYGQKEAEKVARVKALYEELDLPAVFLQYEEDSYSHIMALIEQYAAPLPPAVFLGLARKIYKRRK
Description: Inhibition of human FPPS.

Experiment [2] addresses T2, Isoprenyl transferase (Streptococcus pneumoniae serotype 4 (strain ATCC BAA-334 / TIGR4), UniProt Q97SR4).
T2 sequence (Q97SR4 whole entry): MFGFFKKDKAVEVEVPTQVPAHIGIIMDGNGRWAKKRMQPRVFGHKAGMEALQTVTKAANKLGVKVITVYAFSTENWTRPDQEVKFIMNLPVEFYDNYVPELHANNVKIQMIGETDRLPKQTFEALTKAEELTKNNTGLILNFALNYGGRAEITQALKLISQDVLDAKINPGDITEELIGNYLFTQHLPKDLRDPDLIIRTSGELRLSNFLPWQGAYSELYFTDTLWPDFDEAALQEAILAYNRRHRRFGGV
As to the kind of experiment: Inhibition of Streptococcus pneumoniae UPPS.

With `O=C1CC(Cc2ccccc2)NC(=O)C1C(=O)Nc1ccc(N2CCCCC2)cc1` (stereo unspecified), the IC50 in experiment [1] was more than 50 µM; in experiment [2] it was 0.11 µM.
Take `O=C1CC(Cc2ccccc2)NC(=O)C1C(=O)Nc1ccc(Oc2ccccc2)cc1` (stereo unspecified): the IC50 in experiment [1] is more than 50 µM; in experiment [2] it was 0.11 µM.
In the case of `O=C1CC(Cc2ccccc2)NC(=O)C1C(=O)Nc1ccc(Nc2ccccc2)cc1` (stereo unspecified), in experiment [2], the IC50 came out at 1.1 µM.
`O=C(Nc1ccc(-c2ccccc2)cc1)C1C(=O)OC(Cc2ccccc2)C1=O` (stereo unspecified) gave an IC50 in experiment [2] of 1.1 µM.
